Patent US20070116743A1, “Dietary supplement enhancing the muscular energy metabolism, comprising an alkanoyl carnitine and ribose” (Sigma-Tau Industrie Farmaceutiche Riunite S.p.A., priority 2000, published 2007)

Legend:
[1] = tested on: ventricular arrhythmias induced by left coronary ligation in the rat; test: Experimental myocardial anoxia test: ventricular arrhythmias induced by left coronary ligation; type: in vivo; settings: for N. of ectopic contractions during 30 minutes after ligation / Start of arrhythmias after: rat, left coronary ligation, slow injection into left ventricle 15 minutes before ligation (100 mg/kg each agent; carnitine combination 25 mg/kg per component); for Reduction in number of ectopic contractions compared to controls (in words): summary of Table 2
Description: Experimental Myocardial Anoxia Test
Adopting the technique described by Selych (Selych et al., Angiology, 11, 398, 1960) and modified by Clark (Clark C., J. Pharmacol. Methods, 3, 357, 1980), these tests were used to evaluate the protective activity of isovaleryl L-carnitine, propionyl L-carnitine, carnitine combination, ribose and various combinations of the same against ventricular arrhythmias induced by left coronary ligation in the rat.
Coronary occlusion and the resulting myocardial anoxia lead, after 5-8 minutes, to the onset of arrhythmias. In these tests, ventricular ectopic contractions were counted for a period of 30 minutes after ligation both in control rats and in rats that had received slow injections into the left ventricle, 15 minutes before ligation, of a solution containing isovaleryl L-carnitine alone (100 mg/kg), propionyl L-carnitine alone (100 mg/kg), or carnitine combination alone consisting of propionyl L-carnitne (25 mg/kg), acetyl L-carnitine (25 mg/kg) and isovaleryl L-carnitine (25 mg/kg) or ribose alone (100 mg/kg), or a combination of ribose plus isovaleryl L-carnitine or propionyl L-carnitine or a combination of ribose plus carnitine combination at the doses described above.

[2] = tested on: papillary muscle of rabbit heart; test: Test of ATP concentrations in papillary muscle of heart subjected to anoxia; type: in vivo, New Zealand rabbits; settings: summary of Table 1
Description: Test of ATP Concentrations in Heart Subjected to Anoxia In this test the technique adopted was the one using papillary muscle of rabbit heart perfused and subjected to anoxia which, as is known, leads to an impoverishment of its ATP energy reserves. […] At the end of the third day of treatment, all the animals were sacrificed and their hearts excised. Sections of papillary muscle measuring 1 mm in diameter and 4-5 mm in thickness were isolated from the excised hearts. The isolated papillary muscle was perfused in a thermostatic bath with a saturated 100% O2 solution. The anoxic state was obtained by introducing 100% N2 instead of O2 into the bath. For the measurement of the ATP concentrations in the […] muscle the method described by […] was adopted ([…]. Methods in Enzymology 111 N.Y. Acad. Press., 879, 1957).

SMILES | N. of ectopic contractions during 30 minutes after ligation [1] | Start of arrhythmias after [1] [min] | Reduction in number of ectopic contractions compared to controls (in words) [1] | Protection of ATP in papillary muscle against anoxia (in words) [2]
CC(C)CC(=O)O[C@H](CC(=O)[O-])C[N+](C)(C)C [Isovaleryl L-carnitine] | 860 ± 75 | 5 to 7 | only slight reductions | partly protecting
O=C[C@H](O)[C@H](O)[C@H](O)CO [Ribose] | 855 ± 110 | 5 to 7 | only slight reductions | partly protecting
CCC(=O)O[C@H](CC(=O)[O-])C[N+](C)(C)C [Propionyl L-carnitine] | 830 ± 86 | 5 to 8 | only slight reductions | partly protecting
